# Source: US10399931B2, “Octahydroanthracene compound, preparation method and application thereof” (SHANDONG XINHUA PHARMACEUTICAL CO., LTD., priority 2016, dated 2019)
# Entries after “also recorded” stand apart in the source; their conditions may differ.
# Tests used:
# Assay type in all cases: in vivo
# [1] = system: APP/PS1 double transgenic AD model mice; test: Behavioral experiments (new object discrimination, Y-maze, Morris water maze, nesting, social interaction); details: 14 days or 3 months
# Experimental: The drugs were administered three days after the adaptive feeding. Peanut oil was used as the solvent. The drug was intragastric administered once a day for 15 days. On the 6th to 9th day after the administration, the new object identification test was performed. On the 10th day, the Y-maze test was performed. On the 11th to 15th day, the Morris water maze test was performed to determine the improvement of learning and memory. The administration of the drugs was continued during the behavioral experiment until the animals were sacrificed (16th day). The experimental device is a wooden square open field with a size of 50 cm×50 cm×15 cm. […] The mouse was placed back to the objects at equal distance from the two identical objects on the other side of the experimental device, and the time (tA1, tA2) used to explore the two objects within 5 minutes was recorded. After 1 h, A2 was replaced with a new object (B) and the mouse was placed in the test site again, the time (tA1, tB) used to explore the two objects was recorded. After 24 h, the object B was replaced with a new object (C), and the mouse was placed in the test site again, the time (tA1, tC) used to explore the two objects was recorded. […] The preferential index and the discrimination index of the new objects for each group of the experimental mice were calculated separately. […]
# [2] = system: APP/PS1 transgenic mice; test: Social interaction experiment; details: 200 mg/kg
# Experimental: The social interaction device was composed of a square box (length×width×height: 50 cm×50 cm×15 cm). The behavioral laboratory used diffuse and dim light (25 W) and tried to avoid environmental stress caused by shadows in the experimental area. Before the social interaction experiment, in order to eliminate the influence of unfamiliar environment, each mouse was placed in the experimental device alone to adapt to the environment, 10 min each day for two consecutive days. At the beginning of the test on day 3, the mouse was randomly paired with another strange partner. Two groups of experimental animals were placed in the experimental device at the same time, and the time spent by the mice in the active social interaction behavior was recorded. The test time was 10 min, including sniffing, combing, and scratching or chasing each other. However, passive contact activities (overwhelmed or being ridden by the other mouse, etc.) are not recorded in the social interaction behavior. After each test, 1% bromo geramine was used to disinfect the social interaction device.
# [3] = system: APP/PS1 transgenic mice; test: Nesting experiment
# Text: Each mouse was separately housed in a cage. On the first day of the test, two pieces of cotton (5 cm×5 cm) were placed in the cage. […]
# [4] = system: APP/PS1 mice; test: Transmission electron microscopy of hippocampal CA1 neurons and synapses
# [5] = system: APP/PS1 mice; test: Patch clamp experiment, LTP (synaptic function)
# [6] = system: APP/PS1 double transgenic AD model mice; test: Safety observations during repeated administration in the behavioral experiment; details: for Organ index of heart, liver, spleen and kidney: repeated administration (3 consecutive months)
# Experimental: OAB-14 at a doge of 50, 100 and 200 mg/kg were respectively given to APP/PS1 double transgenic AD model mice aged 8 months by continuous intragastric administration for 14 days or 3 months (to 11 months old, equivalent to the middle- and late-aged AD), using donepezil as a positive control.
smiles,measurement,setting,value
"CC1(C)CCC(C)(C)c2c1cc1c(c2NC(=O)c2ccc(NC(=O)NCCN)cc2)C(C)(C)CCC1(C)C [OAB-14, 1-(2-amino) ethyl-3-{4-[(1,1,4,4,5,5,8,8-octamethyl-1,2,3,4,5,6,7,8-octahydro-9-anthryl)carbamoyl]phenyl} urea]","Learning and memory disorders in new object discrimination, Y-maze, Morris water maze, nesting and social interaction tests","[1]; 50, 100 and 200 mg/kg intragastric, 8-month-old APP/PS1 mice",dose-dependently improve
same,Behavioral effect of the high-dose group compared with donepezil and blank groups,[1]; high-dose group,significantly stronger than that of the donepezil group and completely restored to the level of the blank control group; also recorded: significantly stronger than the donepezil group and completely recovered to the level of the blank group
same,Active contact time vs model group,[2],significantly increased
same,Nesting ability vs model group,"[3]; 100 mg/kg, at 12 h",significantly increased
same,Nesting ability vs model group,"[3]; 200 mg/kg, at 6 h",significantly increased
same,Nesting ability vs model group,"[3]; 200 mg/kg, at 12 h",significantly increased
same,Nesting ability vs model group,"[3]; 200 mg/kg, at 24 h",significantly increased
same,Synaptic ultrastructure of the hippocampus (TEM),[4]; 100 mg/kg group,significantly improved
same,Synaptic ultrastructure of the hippocampus (TEM),[4]; 200 mg/kg group,significantly improved
same,Ultrastructure of hippocampal CA1 neurons (TEM),"[4]; dose-dependent, especially 200 mg/kg group",significantly improved
same,LTP,[5]; 100 mg/kg group,significantly enhanced
same,LTP,[5]; 200 mg/kg group,significantly enhanced
same,Changes in the main organ tissue sections compared with the blank group,[6]; 14 days or 3 months,no changes were observed
same,General condition of the mice,"[6]; low, medium and high dose, 3 consecutive months",in good condition
same,"Organ index of heart, liver, spleen and kidney","[6]; low, medium and high dose",not abnormal
same,"Organ index of heart, liver, spleen and kidney","[6]; low, medium and high dose, listed as OAR-14",not seen to be abnormal
